Source: patent US10870638B2, “Pyridazinone compound or its salt, and herbicide containing it” (ISHIHARA SANGYO KAISHA, LTD., priority 2016, dated 2020)

Experiments:
Type in all cases: in vivo
Settings in all cases: active ingredient amount 31 g/ha, 14th day after application
[1] = tested on: wild oat (Avena fatua L.); assay: Test Example 1: foliar treatment, growth inhibition rate on 14th day
Outline: (§1)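 Visual 0–100% inhibition scoring (100 = complete kill) at 14 days after foliar treatment of soil-grown seedlings at species-specific leaf stages, with the compound sprayed as a wettable powder or emulsifiable concentrate dilution.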

[2] = tested on: italian ryegrass (Lolium multiflorum Lam.); assay: as above
Outline: (§2)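 Using a small sprayer, formulated compound in water (0.1 vol % surfactant, 1,000 L/ha) was applied to seedlings grown from seed in upland soil. Fourteen days on, growth state was observed and expressed as percent inhibition from 0 to 100.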

[3] = tested on: crabgrass (Digitaria sanquinalis L.); assay: as above
Outline: as §2

rice (Oryza sativa L.) [4] = assay: as above
Outline: as §1

[5] = tested on: green foxtail (Setaria viridis L.); assay: as above
Outline: as §1

[6] = tested on: soybean (Glycine max Merr.); assay: as above
Outline: as §1

[7] = tested on: barnyardgrass (Echinochloa crus-qalli L.); assay: as above
Outline: as §2

[8] = tested on: redroot pigweed (Amaranthus retroflexus L.); assay: as above
Outline: as §2

[9] = tested on: wheat (Triticum aestivum L.); assay: as above
Outline: as §2

corn (Zea mays L.) [10] = assay: as above
Outline: as §2

[11] = tested on: crabgrass (Digitaris sanquinalis L.); assay: Test Example 2: soil application on the day after sowing, growth inhibition rate on 14th day
Text: (§3) Upland field soil was put into a 1/300,000 hectare pot, and seeds of various plants (barnyardgrass (Echinochloa crus-qalli L.), crabgrass (Digitaris sanquinalis L.), green foxtail (Setaria viridis L.), redroot pigweed (Amaranthus retroflexus L.), prickly sida (Sida spinosa L.), velvetleaf (Abutilon theophrasti MEDIC.), rice (Oryza sativa L.), corn (Zea mays L.), wheat (Triticum aestivum L.), soybean (Glycine max Merr.)) were sown. On the day after sowing, wettable powders or emulsifiable concentrates of the compounds of the present invention prepared in accordance with a conventional preparation method, were weighed so as to achieve the prescribed active ingredient amounts, and diluted with water in an amount corresponding to 1,000 liters per 1 hectare, followed by soil application by a small sprayer.
(§4) On the 14th day after the application, the state of growth of the respective plants was visually observed, and the herbicidal effect was evaluated by a growth inhibition rate (%) of 0 (equivalent to the non-treated area) to 100 (complete kill).

rice (Oryza sativa L.) [12] = assay: as above
Text: as §3, §4

[13] = tested on: velvetleaf (Abutilon theophrasti MEDIC.); assay: as above
Text: as §3, §4

[14] = tested on: green foxtail (Setaria viridis L.); assay: as above
Text: as §3, §4

[15] = tested on: soybean (Glycine max Merr.); assay: as above
Text: as §3, §4

[16] = tested on: barnyardgrass (Echinochloa crus-qalli L.); assay: as above
Text: as §3, §4

[17] = tested on: redroot pigweed (Amaranthus retroflexus L.); assay: as above
Text: as §3, §4

[18] = tested on: prickly sida (Sida spinosa L.); assay: as above
Text: as §3, §4

[19] = tested on: wheat (Triticum aestivum L.); assay: as above
Text: as §3, §4

corn (Zea mays L.) [20] = assay: as above
Text: as §3, §4

Row | SMILES | Growth inhibition rate (%) Wild oat [1] [%] | Growth inhibition rate (%) Italian ryegrass [2] [%] | Growth inhibition rate (%) Crabgrass [3] [%] | Growth inhibition rate (%) Rice (rice (Oryza sativa L.) [4]) [%] | Growth inhibition rate (%) Green foxtail [5] [%] | Growth inhibition rate (%) Soybean [6] [%] | Growth inhibition rate (%) Barnyardgrass [7] [%] | Growth inhibition rate (%) Redroot pigweed [8] [%] | Growth inhibition rate (%) Wheat [9] [%] | Growth inhibition rate (%) Corn (corn (Zea mays L.) [10]) [%] | Growth inhibition rate (%) Crabgrass [11] [%] | Growth inhibition rate (%) Rice (rice (Oryza sativa L.) [12]) [%] | Growth inhibition rate (%) Velvetleaf [13] [%] | Growth inhibition rate (%) Green foxtail [14] [%] | Growth inhibition rate (%) Soybean [15] [%] | Growth inhibition rate (%) Barnyardgrass [16] [%] | Growth inhibition rate (%) Redroot pigweed [17] [%] | Growth inhibition rate (%) Prickly sida [18] [%] | Growth inhibition rate (%) Wheat [19] [%] | Growth inhibition rate (%) Corn (corn (Zea mays L.) [20]) [%]
1 | Cc1ccc(Oc2ncc(C(F)(F)F)cc2Cl)cc1-c1c(O)c(C)nn(C)c1=O [1-1] | 98 | 98 | 95 | 80 | 99 | 0 | 100 | 10 | 65 | 90 | 100 | 20 | 0 | 100 | 0 | 85 | 0 | 0 | 0 | 50
2 | CCc1ccc(Oc2ncc(C(F)(F)F)cc2Cl)cc1-c1c(O)c(C)nn(C)c1=O [1-3] | 98 | 98 | 99 | 75 | 100 | 15 | 100 | 0 | 15 | 99 | 100 | 80 | 0 | 100 | 0 | 100 | 0 | 0 | 35 | 90
3 | CCc1ccc(Sc2ncc(C(F)(F)F)cc2Cl)cc1-c1c(O)c(C)nn(C)c1=O [1-4] | 99 | 95 | 95 | 20 | 100 | 35 | 99 | 10 | 10 | 93 | 99 | 40 | 0 | 98 | 0 | 100 | 0 | 0 | 0 | 0
4 | Cc1cc(C)c(-c2c(O)c(C)nn(C)c2=O)cc1Oc1ncc(C(F)(F)F)cc1Cl [1-14] | 95 | 85 | 93 | 80 | 98 | 0 | 98 | 0 | 0 | 70 | 83 | 0 | 0 | 93 | 0 | 99 | 0 | 0 | 0 | 0
5 | CC(=O)Oc1c(C)nn(C)c(=O)c1-c1cc(Oc2ncc(C(F)(F)F)cc2Cl)ccc1C [1-40] | 98 | 100 | 99 | 80 | 100 | 10 | 100 | 40 | 93 | 100 | 100 | 60 | 0 | 100 | 0 | 100 | 0 | 0 | 0 | 30
6 | CCOC(=O)Oc1c(C)nn(C)c(=O)c1-c1cc(Oc2ncc(C(F)(F)F)cc2Cl)ccc1C [1-41] | 99 | 100 | 99 | 80 | 100 | 0 | 100 | 10 | 98 | 98 | 100 | 0 | 0 | 100 | 0 | 100 | 0 | 0 | 0 | 20
7 | CC(=O)Oc1c(C)nn(C)c(=O)c1-c1cc(Sc2ncc(C(F)(F)F)cc2Cl)ccc1C [1-42] | 100 | 100 | 100 | 88 | 100 | 10 | 100 | 10 | 100 | 100 | 100 | 80 | 0 | 100 | 0 | 100 | 0 | 0 | 0 | 40
8 | CCc1ccc(Oc2ncc(C(F)(F)F)cc2Cl)cc1-c1c(OC(C)=O)c(C)nn(C)c1=O [1-45] | 100 | 100 | 100 | 99 | 100 | 10 | 100 | 10 | 99 | 100 | 100 | 30 | 0 | 100 | 0 | 100 | 0 | 0 | 20 | 88
